According to patent US12371402B2, “Mitochondrial activity inhibitors targeting tumoral metabolism” (CENTRE LEON BERARD, priority 2018, dated 2025):

What was measured:
[1] = tested on: panel of hematological cell lines; assay: Live cell number by flow cytometry, panel of hematological cell lines; assay type: cell-based, human; conditions: 10 μM, 48 hours
Description: (§1) All the cells were routinely maintained in RPMI 1640 culture medium 11 mM glucose supplemented with 10% FCS. The day of experiment, cells (80 to 100.10^3/well) in exponential phase of growth were seeded in 96 wells plates, in 100 μl of culture medium final volume, in absence (not treated: NT) or presence of indicated compounds concentrations. Stocks of compounds were 10 mM in DMSO, and final DMSO concentration in assay was 0.1%. The control not treated (NT) assays contains 0.1% DMSO. After 48h of incubation at 37° C., cells were immediately analyzed by flow cytometry. Apoptosis was detected using Annexin V/PI staining protocol, according to manufacturer indications.
(§2) Compounds 2 to 4 (named respectively C2 to C4 in the figures) were tested and compared with IACS-010759 (IACS), an OXPHOS inhibitor in clinical phase 1 trial which is assessed in parallel (Molina et al., 2018).

[2] = tested on: Karpas-422 DLBCL lymphoma; assay: Apoptosis by Annexin V/PI flow cytometry, Karpas-422; assay type: cell-based, human; conditions: Karpas-422, 10 μM, 48 hours
Description: as §1, §2

[3] = tested on: mitochondrial ECT complex1; assay: Oxygen consumption in permeabilized tumoral cells (RL, SUDHL4, GRANTA); assay type: cell-based, human
Description: Human Cell lines: RL cells (from ATCC, CRL-2261) and SU-DHL-4 cells (from ATCC, CRL-2957) were grown in flasks in RPMI 1640—Glutamax medium supplemented with 10% fetal bovine serum and 1% penicillin-streptomycin. GRANTA cells were grown in flasks in DMEM-Glutamax medium supplemented with 10% fetal bovine serum and 1% penicillin-streptomycin. Cells were maintained at a constant temperature of 37° C. in a humidified atmosphere containing 5% CO2/95% air.
(§3) Oxygen consumption was measured in a thermostatically controlled oxigraph vessel equipped with a Clarck oxygen electrode at 37° C. (Strathkelvin MS200A system).
(§4) Experiment was started by the addition of 100 μg/ml digitonine and either 5 mM Glutamate plus 2.5 mM Malate or 5 mM Succinate plus 1 μM rotenone, followed by the addition of 500 μM ADP (state 3) then 2 μg/ml Oligomycin (state 4).
Cell lines: RL, SU-DHL-4 or GRANTA cells were centrifuged and counted. A cell suspension (100 million of trypan blue negative cells per ml) was prepared in respiration buffer. 10 million cells were added in the oxigraph chamber containing respiration buffer. The final volume was 1 ml. compound 1 (0.5 to 20 μM) was added to permeabilized cells after the addition of ADP or oligomycin.
(§5) All measures were realized 2 min after drugs addition.

[4] = tested on: Diffuse Large B Cell Lymphoma (SUDHL-4 model) xenograft; assay: CDX xenograft tumor volume, SUDHL-4 model; assay type: in vivo, female SCID mice; conditions: SUDHL-4 xenograft, 50 mg/kg intraperitoneal five times a week, versus DMSO control
Source text: (§6) CDX (cell derived xenografts) models of human NHL were used: Follicular Lymphoma (RL model), Diffuse Large B Cell Lymphoma (SUDHL-4 model). Cells were subcutaneously implanted; since the tumor growth was not homogeneous, it was decided to implant surgically 2×2 mm pieces from these initial tumours. Animals were female SCID mice.
(§7) Mice were randomized when the tumors reach a mean volume of 100 mm^3 for the 2 groups (control and compound 1). […] The endpoints are defined by animal ethics as a tumor diameter of >18 mm, significant weight loss or alteration of animal well-being. In order to assess the effectiveness of the compound 1 on tumorigenesis, tumor volume was measured three times a week. The sizes of the primary tumors were measured using calipers and the tumor volume (TV) was extrapolated to a sphere using the formula TV=4/3 π×r3, by calculating the mean radius from the two measurements. The median and standard deviation were also calculated for each group. Median is preferred to mean in order to exclude the extreme values.
(§8) COMPOUND 1 was administered by intraperitoneal injection five times a week, at dose 50 mg/kg. Control DMSO was administered also by intraperitoneal injection five times a week. […]
(§9) Unless specified, the non-parametric Mann-Whitney test was performed on the tumor volume values (mm^3) measured on the day of the first euthanasia.

[5] = tested on: MEF_LKB-/- and MEF_LKB1+/+ cells; assay: WST-1 cell viability test, MEF cells with or without the LKB1 gene; assay type: cell-based, mouse; conditions: MEF_LKB-/- versus MEF_LKB1+/+, 24 hours
Description: (§10) Drugs (compound 1 and Metformin) were initially diluted in DMSO (=vehicle dimethylsulfoxide). Appropriate dilutions of these stocks were performed in DMSO and finally in culture medium; 15 μl of each dilution was distributed in 4 wells (replicates) according to the plate schedule to obtain final drug concentrations (0.1 μM to 1 mM for metformin and 1 μM to 200 μM for compound 1) after cells were added. Control wells with vehicle at the appropriate dilution only were included. Lymphoma cells in exponential phase of growth were counted and assessed for more than 95% viability by trypan blue coloration. […] Adherent cells (MEFs cells and INS-1 cells were seeded the day before to obtain 80% confluence the day of experiment. Culture medium was renewed with 35 μL fresh medium and 15 μl of appropriated drug dilution was then added. These plates were incubated 24 hours at 37° C./5% CO2. Then addition of 5 μl of WST-1 cell proliferation reagent (Roche, #11644807001) was performed, before incubation 2-4 hours at 37° C. and lecture of the absorbance following the manufacturer instructions. WST-1 assays are non-radioactive, rapid and more sensitive than MTT, XTT, or MTS-based assays. The WST-1 assay is based on the cleavage of the tetrazolium salt WST-1 to formazan by cellular mitochondrial dehydrogenases. […] Cell viability was assessed comparing wells containing drugs to those with vehicle only. […]

[6] = tested on: Karpas-384 gamma/delta PTCL lymphoma cells; assay: WST-1 cell viability test, Karpas-384 lymphoma cells; assay type: cell-based; conditions: Homo sapiens, 24 hours incubation
Source text: (§11) RL cells (from ATCC, CRL-2261), SUDHL-4 cells (from ATCC, CRL-2957), GRANTA cells, BJAB Burkitt lymphoma cells, SUDHL4 DLBCL lymphoma cells, REC-1 Mantle lymphoma cells, RL follicular lymphoma cells, MTA NK/T lymphoma cells, HUT-78 Sesary T lymphoma cells, Karpas-384 gamma/delta PTCL lymphoma cells and SR-786 ALCL/Alk+ lymphoma Wild type/rescue MEF_LKB1+/+(mouse embryonic fibroblasts) cells were taken as a control; and mutated MEF_LKB−/− cells in which LKB1 gene was invalidated (Bardeesy et al., 2002). All cells were grown in flasks in RPMI 1640 Glutamax medium 11 mM Glucose supplemented with 10% fetal bovine serum and 1% penicillin-streptomycin medium supplemented with 10% fetal bovine serum and 1% penicillin-streptomycin. Cells were maintained at a constant temperature of 37° C. in a humidified atmosphere containing 5% CO2/95% air.
(§12) Drugs (compound 1 and Metformin) were initially diluted in DMSO (=vehicle dimethylsulfoxide). […] Lymphoma cells in exponential phase of growth were counted and assessed for more than 95% viability by trypan blue coloration. […] The formazan dye produced by viable cells can be quantified by measuring the absorbance at 440 nm. Cell viability was assessed comparing wells containing drugs to those with vehicle only. […]

INS-1 cells = assay: WST-1 cell viability test, pancreatic neuroendocrine tumor cell line INS-1; assay type: cell-based
Description: as §10

[7] = tested on: Human B lymphoma and T lymphoma cell lines; assay: WST-1 cell viability test, panel of human B and T lymphoma cell lines; assay type: cell-based
Source text: as §11, §12

[8] = tested on: RL follicular lymphoma cells; assay: WST-1 cell viability test, RL follicular lymphoma cells; assay type: cell-based; conditions: Homo sapiens, 24 hours incubation
Source text: as §11, §12

[9] = tested on: Follicular Lymphoma (RL model) xenograft; assay: CDX xenograft tumor volume, RL model; assay type: in vivo, female SCID mice; conditions: 50 mg/kg intraperitoneal five times a week, versus DMSO control
Source text: as §6, §7, §8, §9

[10] = tested on: mitochondrial ECT complex1; assay: Oxygen consumption in permeabilized fresh hepatocytes; assay type: cell-based; conditions: permeabilized rat liver hepatocytes, state 3, 2 min after addition
Description: Rat liver hepatocytes were isolated from overnight-starved animals by enzymatic digestion with collagenase according to the method of Berry and Friend modified by Groen.
Primary hepatocytes were directly used after isolation (for metabolic analyses). Cells were maintained at a constant temperature of 37° C. in a humidified atmosphere containing 5% CO2/95% air. The medium was removed after 4 h (time necessary for cell attachment) and replaced by fresh medium.
as §3, §4
Primary hepatocytes: 5.105 fresh hepatocytes were added in the oxigraph chamber containing respiration buffer (KET buffer: KCl 125 mM, EGTA 1 mM, Tris 20 mM) supplemented with 0.1% BSA, 5 mM inorganic phosphate (Pi). The final volume was 1 ml. Oxygen consumption rate was measured before and after the addition of compound 1 (1, 20, 50 or 100 μM) either in resting (state 2) or phosphorylating (state 3) condition.
as §5

dose inhibiting oxygen consumption, tumoral cells versus fresh hepatocytes ([3]; permeabilized tumoral cells (RL, SUDHL4, GRANTA) compared with permeabilized fresh hepatocytes) | IC50 [6] | IC50 compared with IC50 of metformin (INS-1 cells; 24 hours incubation) | IC50 (INS-1 cells; Rattus norvegicus, INS1, 24 hours incubation) | IC50 compared with IC50 of metformin ([7]; all lymphomas, 24 hours incubation, WST-1) | IC50 [8] | SMILES | number of living cells [1] | apoptosis (apoptotic cells/cell decrease) [2] | mitochondrial oxygen consumption ([3]; permeabilized RL, SUDHL4 and GRANTA cells, state 3, 2 min after addition) | tumor growth (tumor volume) [4] | toxicity on cells with or without LKB1 (viability) [5] | sensitivity of lymphoma cell lines (viability) ([7]; human B and T lymphoma, 24 hours, 1 μM to 200 μM) | tumor growth (tumor volume) [9] | mitochondrial oxygen consumption [10]
 |  |  |  |  |  | N=C(Nc1ccc2ccccc2c1)SCCCCCCSC(=N)Nc1ccc2ccccc2c1 [compound 4] | induces a differential decrease in the number of living cells | can induce apoptosis |  |  |  |  |  | 
about 25 times smaller | < 10 µM | far below IC50 of metformin | < 10 µM | far below IC50 of metformin | < 10 µM | N=C(Nc1ccccc1)SCCCCCCSC(=N)Nc1ccccc1 [compound 1] |  |  | inhibits mitochondrial oxygen consumption in all cells tested | reduces tumor growth | more toxic for the cells that do not express the LKB1 protein | sensible to compound 1 | reduces tumor growth | inhibits mitochondrial oxygen consumption in all cells tested
